One may read the IC50 as the midpoint of a concentration-inhibition curve. Low values mean inhibition by little substance, high ones a need for much substance. In general, Ki refers to a dissociation constant, usually derived from enzyme kinetics or from competition with a known ligand.

The first assay has as its target T1, Estrogen receptor (Homo sapiens, UniProt Q92731+P03372). Kind of assay: Inhibition of estrogen receptor positive human breast carcinoma (MCF-7) cell proliferation. It counts as functional.
On to `CN(C)CCOc1ccc(C2=C(c3cccc([N+](=O)[O-])c3)CCOc3ccccc32)cc1`, for which the IC50 turned out to be 64.6 µM. In turn, `COc1ccc(C2=C(c3ccc(OCCN(C)C)cc3)c3ccccc3OCC2)cc1` returned an IC50 of 11.1 µM. This IC50 is about 5.8-fold lower than that of the compound before.

`c1ccc(C2=C(c3ccc(OCCN4CCCC4)cc3)c3ccccc3OCC2)cc1` came in with an IC50 of 6.1 µM.

Take `COc1ccccc1C1=C(c2ccc(OCCN(C)C)cc2)c2ccccc2OCC1`: the IC50 stood at 11.7 µM. The compound `CCN(CC)CCOc1ccc(C2=C(c3ccccc3)CCOc3ccccc32)cc1` showed a 50% inhibitory concentration (IC50) of 14.2 µM. Same read-out and setting: to `c1ccc(C2=C(c3ccc(OCCN4CCOCC4)cc3)c3ccccc3OCC2)cc1` belongs 7.6 µM. On the same count and under the same terms, with `COc1cccc(C2=C(c3ccc(OCCN(C)C)cc3)c3ccccc3OCC2)c1` the figure was 56.6 µM; with `CN(C)CCOc1ccc(C2=C(c3ccccc3)CCOc3ccccc32)cc1`, 16.2 µM; with `CN(C)CCOc1ccc(C2=C(c3ccc(Cl)cc3)CCOc3ccccc32)cc1`, 18.3 µM.

With `c1ccc(C2=C(c3ccc(OCCN4CCCCC4)cc3)c3ccccc3OCC2)cc1`, the IC50 amounted to 10.6 µM. Compound `Cc1cccc(C2=C(c3ccc(OCCN(C)C)cc3)c3ccccc3OCC2)c1` gave a half-inhibitory concentration (IC50) of 33.6 µM.

`CN(C)CCOc1ccc(C2=C(c3ccc(C#N)cc3)CCOc3ccccc32)cc1` returned an IC50 of 74.3 µM.

For the compound `Cc1ccc(C2=C(c3ccc(OCCN(C)C)cc3)c3ccccc3OCC2)cc1`, the concentration for half-maximal inhibition (IC50) is 15.7 µM.

For the next assay, the target named is T1, Estrogen receptor. Kind of assay: Binding affinity for estrogen receptor of human breast carcinoma (MCF-7) cell line; 828 +/- 106 […].
For `Cc1ccc(C2=C(c3ccc(OCCN(C)C)cc3)c3ccccc3OCC2)cc1`, the Ki stood at 0.828 µM. This lies in the sub-micromolar range.

In another assay the target is T1, Estrogen receptor. The experiment in a line: Binding affinity for estrogen receptor of human breast carcinoma (MCF-7) cell line.
In turn, `CN(C)CCOc1ccc(C2=C(c3ccccc3)CCOc3ccccc32)cc1` gave a Ki of 3.2 µM.
